# Where two headings read alike, the source gives them in different places.
# How the values were obtained:
# intracerebral gliomas = settings: adenovirus carrying HSV-TK intratumorally, IP GCV twice daily for 6 days; cited from earlier work
# [1] = system: subcutaneous tumors (glioma-breast cancer) retrovirally transduced with CYP2B1; settings: single IP injection of cyclophosphamide; cited from earlier work
# hepatic metastases = settings: cited from earlier work
# [2] = system: Murine colon adenocarcinoma cells (MC38 cells); type: cell-based
# [3] = system: transduced sarcoma cell line; settings: cited from earlier work
# sarcoma cells = settings: gpt gene retrovirally transduced; cited from earlier work
# glioma cells = settings: cited from earlier work
# melanoma cells = settings: after antibody-β-lactamase conjugate; cited from earlier work
smiles,measurement,setting,value
"Nc1nc(O)c2ncn(COC(CO)CO)c2n1 [GCV, Gancyclovir]",complete regressions,intracerebral gliomas,2
same,decrease in tumor size compared to controls,intracerebral gliomas,23 fold
O=P1(N(CCCl)CCCl)NCCCO1 (stereo not shown) [cyclophosphamide],"complete inhibition of tumors, share of animals",[1],95%
"Cc1ncnc2c1ncn2[C@H]1C[C@H](O)[C@@H](CO)O1 [6-MPDR, 6-methylpurine deoxyriboside]",cure rate,hepatic metastases; every other daily injections of 6-MPDR,50%
same,cure rate,hepatic metastases; weekly injections of 6-MPDR,30%
"Nc1nc(=O)[nH]cc1F [5-FC, 5-fluorocytosine]",cells killed as a result of the 5-FC exposure,[2],~100%
same,effect of the 5-FC exposure on cells,[2],not affected
"O=c1[nH]c(=S)c2[nH]cnc2[nH]1 [6-TX, 6-thioxanthine]",treatment mortality due to toxicity of the converted prodrug,[3]; 5 days of treatment with 6-TX,10%
same,"complete regression, share of the animals",[3]; after 5 days of treatment with 6-TX,95%
same,increased sensitivity,sarcoma cells,86 fold
same,LD50,glioma cells; glioma cells transduced with gpt,2.5 µmol/L
same,sensitivity of untransfected cells,glioma cells; untransfected cells at 50 umol/L,minimally sensitive
"COc1cccc2c1C(=O)c1c(O)c3c(c(O)c1C2=O)C[C@@](O)(C(=O)CO)C[C@@H]3O[C@H]1C[C@H](NC(=O)OCC2=C(C(=O)O)N3C(=O)[C@@H](NC(=O)Cc4ccccc4)[C@H]3SC2)[C@H](O)[C@H](C)O1 [C-Dox, cephalosporin-doxorubicin]",increase in the sensitivity of cells to the prodrugs,melanoma cells,4 fold
